Tests used:
[1] = test system: A549 human non small cell lung cancer cells; experiment: Apoptosis, Cell Death Detection ELISA Plus, A549 cells; format: cell-based
Method: (§1) In order to determine the effects of DNMT3a and DNMT3b inhibition on apoptosis of cancer cells, various cancer cell lines (A549 or T24 cells, MDAmb231) were exposed to the DNMT3a and DNMT3b AS-ODN for various periods of time and the effects on apoptosis were determined. For the analysis of apoptosis (active cell death), cells were analyzed using the Cell Death Detection ELISA ^Plus kit (Roche Diagnostic GmBH, Mannheim, Germany) according to the manufacturer's directions. Typically, 10,000 cells were plated in 96-well tissue culture dishes for 2 hours before harvest and lysis. Each sample was analyzed in duplicate. ELISA reading was done using a MR700 plate reader (DYNEX Technology, Ashford, Middlesex, England) at 410 nm. The reference was set at 490 nm.

[2] = test system: MRHF (foreskin fibroblasts); experiment: Apoptosis in normal cells, MRHF; format: cell-based, human; settings: 75 nM, 48 hrs
Method: as §1
(§2) The effect of DNMT3b inhibition on the induction of apoptosis in normal cells was also determined, the results of which are presented in FIG. 10. HMEC (human mammary epithelial cells, ATCC, Manassas, Va.) and MRHF (foreskin fibroblasts, ATCC, Manassas, Va.) were treated with 75 nM of DNMT3b AS (SEQ ID NO: 18) or its mismatch control SEQ ID NO: 19 for 48 hrs as previously described for human cancer cells.

DNMT3a mRNA = experiment: Northern blot of DNMT3a mRNA expression after antisense treatment; format: cell-based, human; settings: A549 cells
Method: (§3) To identify antisense oligodeoxynucleotide (ODN) capable of inhibiting DNMT3a or DNMT3b expression in human cancer cells, antisense oligonucleotides were initially screened in T24 (human blader) A549 (human non small cell lung cancers cells at 100 nM. Cells were harvested after 24 hours of treatment, and DNMT3a or DNMT3b RNA expression was analyzed by Northern blot analysis.
(§4) Active oligonucleotides identified in initial screens were then synthesized with phosporothiate backbone modification and 2′-O-methyl modifications of the sugar on the four 5′ and 3′ nucleotides. […] Human A549 or T24 cells were treated with increasing doses of antisense (AS) oligonucleotide from 0-75 nM for 24 hours.
Briefly, human A549 or T24 human bladder carcinoma cells were seeded in 10 cm tissue culture dishes one day prior to oligonucleotide treatment. The cell lines were obtained from the American Type Culture Collection (ATCC) (Manassas, Va.) and were grown under the recommended culture conditions. Before the addition of the oligonucleotides, cells were washed with PBS (phosphate buffered saline). Next, lipofectin transfection reagent (GIBCO BRL Mississauga, Ontario, Calif.), at a concentration of 6.25 μg/ml, was added to serum free OPTIMEM medium (GIBCO BRL, Rockville, Md.), which was then added to the cells. […]
Cells were harvested, and total RNAs were analyzed by Northern blot analysis. […]

[3] = test system: Glyceraldehyde 3′-phosphate dehydrogenase mRNA; experiment: Northern blot, non target mRNA Glyceraldehyde 3′-phosphate dehydrogenase; format: cell-based, human; settings: A549 cells
Method: as §4
(§5) Briefly, human A549 or T24 human bladder carcinoma cells were seeded in 10 cm tissue culture dishes one day prior to oligonucleotide treatment. The cell lines were obtained from the American Type Culture Collection (ATCC) (Manassas, Va.) and were grown under the recommended culture conditions. Before the addition of the oligonucleotides, cells were washed with PBS (phosphate buffered saline). Next, lipofectin transfection reagent (GIBCO BRL Mississauga, Ontario, Calif.), at a concentration of 6.25 μg/ml, was added to serum free OPTIMEM medium (GIBCO BRL, Rockville, Md.), which was then added to the cells. The oligonucleotides to be screened were then added directly to the cells (i.e., one oligonucleotide per plate of cells).
Cells were harvested, and total RNAs were analyzed by Northern blot analysis. Briefly, total RNA was extracted using RNeasy miniprep columns (QIAGEN). Ten to twenty μg of total RNA was run on a formaldehyde-containing 1% agarose gel with 0.5 M sodium phosphate (pH 7.0) as the buffer system. […]

[4] = test system: HMEC (human mammary epithelial cells); experiment: Apoptosis in normal cells, HMEC; format: cell-based; settings: 75 nM, 48 hrs
Method: as §1, §2

DNMT3b protein = experiment: Western blot of DNMT3b protein level; format: cell-based, human; settings: 0-75 nM, 48 hrs
Method: In order to determine whether treatment with DNMT3a or DNMT3b AS-ODNs would inhibit expression at the protein level, antibodies specific for either DNMT3a or DNMT3b were produced for use in western blots. DNMT3b is expressed at sufficiently high levels in human cancer cells to be detected by our DNMT3b antibody. However, DNMT3a is not expressed at detectable levels. Therefore, both human A549 non small cell lung cancer cells and T24 human bladder cancer cells were treated with doses of the DNMT3b antisense inhibitor (SEQ ID NO: 18) ranging from 0-75 nM for 48 hours and then measured DNMT3b protein levels by Western blot.
Briefly, cells were lysed in buffer containing 1% Triton X-100, 0.5% sodium deoxycholate, 5 mM EDTA, 25 mM Tris-HC1, pH 7.5, plus protease inhibitors. Total protein was quantified by the protein assay reagent from Bio-Rad (Hercules, Calif.). 100 ug of total protein was analyzed by SDS-PAGE. Next, total protein was transferred onto a PVDF membrane and probed with DNMT3b specific antibody. Anti-DNMT3b antibody was raised by immunizing rabbits with a GST fusion protein containing a fragment of the DNMT3b protein (amino acids 4-101 of GenBank Accession No. NM_006892). Rabbit antiserum was tested and found only to react specifically to the human DNMT3b isoform. DNMT3b antiserum was used at 1:500 dilution in Western blots to detect DNA MeTase-6 in total cell lysates. Horse Radish Peroxidase conjugated secondary antibody was used at a dilution of 1:5000 to detect primary antibody binding. The secondary antibody binding was visualized by use of the Enhanced chemiluminescence (ECL) detection kit (Amersham-Pharmacia Biotech., Inc., Piscataway, N.J.).

DNMT1 mRNA = experiment: Northern blot, non target mRNA DNMT1; format: cell-based, human; settings: A549 cells
DNMT3b mRNA = experiment: Northern blot of DNMT3b mRNA expression after antisense treatment; format: cell-based, human; settings: A549 cells
Method: as §3, §4, §5
Cells were harvested, and total RNAs were analyzed by Northern blot analysis. Briefly, total RNA was extracted using RNeasy miniprep columns (QIAGEN). Ten to twenty μg of total RNA was run on a formaldehyde-containing 1% agarose gel with 0.5 M sodium phosphate (pH 7.0) as the buffer system. RNAs were then transferred to nitrocellulose membranes and hybridized with the radiolabelled DNA probes specific for DNMT3a or DNMT3b messenger RNA. Autoradiography was performed using conventional procedures.

Substance	apoptosis [1]	apoptosis [2]	expression of DNMT3a mRNA (DNMT3a mRNA)	expression of non target mRNA Glyceraldehyde 3′-phosphate dehydrogenase [3]	apoptosis [4]	level of DNMT3b protein (DNMT3b protein; A549 human non small cell lung cancer cells)	level of DNMT3b protein (DNMT3b protein; A549 human non small cell lung cancer cells, listed as MG3741)	level of DNMT3b protein (DNMT3b protein; T24 human bladder cancer cells)	level of DNMT3b protein (DNMT3b protein; T24 human bladder cancer cells, listed as MG3741)	expression of non target mRNA DNMT1 (DNMT1 mRNA)	expression of DNMT3b mRNA (DNMT3b mRNA)	IC50 (DNMT3b mRNA; 0-75 nM, 24 hours, read-out: estimated IC50 value, inhibition of DNMT3b expression) [µM]
SEQ ID NO: 18: DNMT3B AS, 3′UTR (3993), PTI, 5′cgtcgtggctccagttacaa3′ (antisense CGTCGTGGCTCCAGTTACAA; DNA, all phosphorothioate, methylation of C not given here)	induced apotosis	no apoptosis	not effected	not effected	no apoptosis	dose dependent effect	inhibits	dose dependent effect	inhibits	not effected	dose dependent inhibition	~0.025
SEQ ID NO: 33: DNMT3A AS, 3′UTR (4045), PTI, 5′cgtgagaacgcgccatctgc3′ (antisense CGTGAGAACGCGCCATCTGC; DNA, all phosphorothioate, methylation of C not given here)			dose dependent effect	not effected						not effected	not effected	

Reference: patent publication US20030083292A1, “Inhibitors of DNA methyltransferase isoforms” (priority 2001, published 2003)
